Experimental data as given in publication PMC6207618, “The GbsR Family of Transcriptional Regulators: Functional Characterization of the OpuAR Repressor” (Frontiers in Microbiology, 2018).

Experiments:
[1] = system: opuAA-treA reporter activity; test: opuAA-treA reporter fusion TreA enzyme activity assay; type: cell-based, Bacillus subtilis; conditions: strain STHB10 (OpuAR+), SMM with 1.2 M NaCl, 1 mM compatible solute
From the text: opuAAB.infantis′-treA reporter gene fusions were constructed using primers opuAR treA Frag1/2 rev and either opuAR treA Frag1/4 for (Supplementary Table S2) to amplify a 1940-bp DNA fragment from chromosomal DNA of B. infantis NRRL B-14911, including the predicted opuA promoter region and the coding region of opuAR, or primer opuAR treA Frag2 for, to generate a fragment lacking the opuAR gene. PCR products, which had been cut with BamHI and SmaI, were cloned into the vector pJMB1 ([Hoffmann et al., 2013]). This vector carries a promoterless treA gene, whose gene product [phospho-α-(1,1)-glucosidase] can be assayed and photometrically quantitated with the chromogenic substrate α-PNPG ([Gotsche and Dahl, 1995]). The plasmids resulting for the construction of the treA transcriptional reporter gene fusions were named pSTH33 (opuAR^+/opuAAB.i-treA) and pSTH34 (opuAR^-/opuAAB.i-treA) (Supplementary Table S3). All treA reporter gene fusions were stably integrated as a single copy into the chromosome of various B. subtilis strains at the amyE gene; all of these strains carry a gene disruption mutation of the native chromosomal treA gene of B. subtilis to allow the assignment of the measured TreA enzyme activity to the reporter gene constructs (Supplementary Table S1).
Aliquots (1.5 ml) from cultures of B. subtilis strains carrying chromosomal opuAAB.i′-treA reporter operon gene fusions (Supplementary Table S1) were used to monitor the expression levels by assaying the TreA reporter enzyme activity as described previously using the chromogenic substrate α-PNPG ([Gotsche and Dahl, 1995]). The TreA-specific activity is expressed in units per milligram of protein. Protein concentrations were estimated from the optical density of the cell culture harboring the treA reporter operon gene fusion ([Miller, 1972]).
FIGURE 6 Influence of the B. subtilis GbsR-like regulators on the expression of opuA from B. infantis and its transcriptional response to the presence of compatible solutes. (A) Genetic structure of the opuAA-treA transcriptional reporter fusions. (B) The opuAA-treA reporter gene fusions, either including or lacking the B. infantis opuAR gene, were integrated into the chromosome of the B. subtilis strain STHB05; it carries gene disruption mutations of all three GbsR-like regulators, resulting in strains STHB10 (OpuAR^+) and STHB11 (OpuAR^-). […] The opuAA-treA reporter strains were grown in SMM to early exponential growth phase (OD578 1–1.5) and then assayed for TreA reporter enzyme activity. The shown data represent four independent biological replicates and each culture was assayed twice. (C) Strain STHB10 (opuAR^+/opuAA-treA) was grown in SMM with increasing NaCl concentrations until each of these cultures reached mid-exponential growth phase (OD578 of about 1.5) and were then harvested for TreA reporter enzyme activity assays. The given data are the means and standard deviations of four independent biological replicates and each culture was assayed twice. (D) Expression of the opuAA-treA reporter gene construct in response to extracellular provided compatible solutes. The opuAA-treA reporter fusion strains STHB10 (OpuAR^+) and STHB11 (OpuAR^-) were cultivated in SMM containing 1.2 M NaCl either in the absence or presence of 1 mM of the indicated compatible solutes. The opuAA-treA reporter fusion strains were grown to early exponential growth phase (OD578 1–1.5) and then assayed for TreA reporter enzyme activity. The given data are the means and standard deviations of four independent biological replicates and each culture was assayed twice.
To identify possible effector molecules for the B. infantis OpuAR protein, we conducted a series of in vivo experiments in which we assessed any possible inducing effects of compatible solutes on opuAA-treA transcriptional activity in an OpuAR-dependent fashion (Figure 6D).

[2] = molecular target: B. infantis OpuAR protein (OpuAR-Strep-tag II recombinant protein) (Bacillus infantis NRRL B-14911); test: SEC; HiLoad 16/600 Superdex 200 pg; 2 ml of affinity-purified OpuAR (1.5 mg/ml) loaded straight after purification; 100 mM KPP (pH 8), 300 mM NaCl; column standardised with thyroglobulin, albumin, ovalbumin and cytochrome C

Q: How did the “Induction of opuAA-treA reporter activity (OpuAR-dependent)” value [1] turn out when `C[N+](C)(C)CCOS(=O)(=O)[O-]` [choline-O-sulfate] was run?
A: did not serve as inducers

Q: Which “Induction of opuAA-treA reporter activity (OpuAR-dependent)” value [1] does the source give for `CC1=NCC[C@@H](C(=O)O)N1` [ectoine] here?
A: did not serve as inducers

Q: For “B. infantis OpuAR protein (OpuAR-Strep-tag II recombinant protein) (natural protein)”, which stoichiometry N [2] is on record?
A: 2
